Experimental findings from PubChem BioAssay (NCI) are described below.

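All cell lines were grown in 96-well plates and treated with compound for 48 hours. TGI: total growth inhibition.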

Among the test systems are UO-31 renal; MCF7 breast; COLO 205 colon; SR leukemia; SK-OV-3 ovarian; HCT-15 colon; TK-10 renal; MDA-MB-231 breast; RPMI-8226 leukemia; SNB-19 CNS; UACC-257 melanoma; HL-60(TB) leukemia; SF-539 CNS; OVCAR-5 ovarian; RXF 393 renal; LOX IMVI melanoma.
Common to all, as to experiment: NCI tumour cell line growth inhibition, 48 h

With `C=C1C2C[C@@H]3O[C@H]4C[C@H]5O[C@@]6(C[C@@H]7O[C@]8(C[C@H](C)[C@@H]9O[C@@H]%10CC(C=O)O[C@@H]%10C[C@@H]9O8)C[C@H](C)[C@@H]7O6)C[C@H]5O[C@H]4[C@H](C)[C@H]3OC(=O)C[C@H]3CC[C@@H]4OC5[C@H]6O[C@]7(CC[C@H]8CC(=C)[C@H](CC[C@@H](C[C@H]1C)O2)O8)CC6O[C@@H]5[C@@H](O7)[C@H]4O3` (stereo partly drawn), the TGI was > 1 µM in the test on UO-31 renal; > 1 µM in the test with MCF7 breast; 0.00103 µM with COLO 205 colon; > 1 µM in the test on SR leukemia; > 1 µM in the test with SK-OV-3 ovarian; 0.00609 µM with HCT-15 colon. Also, the TGI with TK-10 renal is > 1 µM; in the test on MDA-MB-231 breast, > 0.218 µM; in the test with RPMI-8226 leukemia, 0.000326 µM; in the test on SNB-19 CNS, > 1 µM.

As for `N#CC(c1ccccc1)N(CCc1ccccc1)C(=O)c1ccc(C(=O)N(CCc2ccccc2)C(C#N)c2ccccc2)cc1` (stereo not drawn), the TGI in the test with UO-31 renal was 63.8 µM; in the test on MCF7 breast, > 100 µM; with COLO 205 colon, 55.6 µM; in the test with UACC-257 melanoma it was 35.3 µM; in the test with SK-OV-3 ovarian, > 100 µM; in the test on HCT-15 colon, 37.8 µM. Moreover, the TGI in the test on HL-60(TB) leukemia is > 100 µM; in the test on TK-10 renal, 29.8 µM; in the test with SF-539 CNS it was 42.6 µM; with MDA-MB-231 breast, 76.1 µM; with OVCAR-5 ovarian it was 78.7 µM; in the test on RXF 393 renal, 61.3 µM. The values for the TGI with SNB-19 CNS and with LOX IMVI melanoma were > 100 µM and 37 µM, respectively.

With `Cc1ccc(N=NN(C)C(C)C(O)Cc2ccccc2)cc1` (stereo not drawn), the TGI in the test on UO-31 renal, with MCF7 breast, in the test with COLO 205 colon, with UACC-257 melanoma, in the test with SK-OV-3 ovarian and with HCT-15 colon was > 100 µM in each case. Besides, the TGI with HL-60(TB) leukemia, in the test on TK-10 renal, in the test with MDA-MB-231 breast, in the test on OVCAR-5 ovarian, with RXF 393 renal and with RPMI-8226 leukemia was > 100 µM in each case. Further, the TGI in the test with SNB-19 CNS is > 100 µM.

On to `O=C1NC(=S)N/C1=C\c1ccc(Cl)cc1`, for which the TGI with UO-31 renal, in the test on MCF7 breast, with COLO 205 colon, in the test with SK-OV-3 ovarian, with HCT-15 colon and with TK-10 renal was > 100 µM each time. The TGI in the test with SF-539 CNS, with MDA-MB-231 breast, in the test with OVCAR-5 ovarian, in the test on RXF 393 renal, with RPMI-8226 leukemia and in the test on SNB-19 CNS was > 100 µM each time. Also, the TGI in the test on LOX IMVI melanoma was > 100 µM.

Consider `Cc1occc1C(=S)Nc1ccc(Cl)c(C(=O)OCC(C)C)c1`, for which the TGI was 33.2 µM in the test with UO-31 renal; 33.3 µM in the test on MCF7 breast; 39.9 µM in the test with COLO 205 colon; 40.2 µM in the test with UACC-257 melanoma; 42.4 µM in the test on SK-OV-3 ovarian; 36.1 µM in the test with HCT-15 colon. The TGI in the test with HL-60(TB) leukemia was found to be 79.5 µM; with TK-10 renal, 33.5 µM; in the test on SF-539 CNS, 43.6 µM; in the test with MDA-MB-231 breast, 31.4 µM; in the test with OVCAR-5 ovarian, 88.1 µM; in the test on RPMI-8226 leukemia, 75 µM. Moreover, the values for the TGI in the test with SNB-19 CNS and with LOX IMVI melanoma were 31.2 µM and 28.6 µM, respectively.

In the case of `Cc1cccc2c(N)c3cccc(C(=O)NCC[N+](C)(C)Cc4ccc(S(C)(=O)=O)cc4)c3nc12`, the TGI with UO-31 renal, with MCF7 breast, in the test on COLO 205 colon, in the test with UACC-257 melanoma, in the test with SK-OV-3 ovarian and with HCT-15 colon was > 100 µM each time. Also, the TGI was 38.6 µM with HL-60(TB) leukemia; > 100 µM with TK-10 renal; > 100 µM in the test on SF-539 CNS; > 100 µM in the test with MDA-MB-231 breast; > 100 µM in the test on OVCAR-5 ovarian; > 100 µM in the test on RXF 393 renal. Moreover, the TGI is > 45.4 µM with RPMI-8226 leukemia, > 100 µM in the test on SNB-19 CNS and > 100 µM in the test with LOX IMVI melanoma.

In the case of `O=C(NC(=O)c1ccccc1)OC(c1ccccc1)C1CO1` (stereo not drawn), the TGI in the test on UO-31 renal, with MCF7 breast, in the test with COLO 205 colon, in the test on UACC-257 melanoma, with SK-OV-3 ovarian and with HCT-15 colon was > 100 µM each time. Also, the TGI with HL-60(TB) leukemia, in the test with TK-10 renal, with SF-539 CNS, in the test on MDA-MB-231 breast, in the test with OVCAR-5 ovarian and with RXF 393 renal was > 100 µM throughout. The TGI in the test with RPMI-8226 leukemia, in the test on SNB-19 CNS and in the test on LOX IMVI melanoma was > 100 µM each time.

As for `O=C1CNc2cc(N3CCOCC3)ccc2N1`, the TGI in the test with UO-31 renal, in the test on COLO 205 colon, in the test with UACC-257 melanoma, in the test with SR leukemia, in the test on SK-OV-3 ovarian and in the test with HCT-15 colon was > 100 µM in each case. Also, the TGI with HL-60(TB) leukemia, with TK-10 renal, in the test on MDA-MB-231 breast, in the test on OVCAR-5 ovarian, with RXF 393 renal and with RPMI-8226 leukemia was > 100 µM in each case. Also, the TGI in the test on SNB-19 CNS and in the test on LOX IMVI melanoma was > 100 µM in each case.
